Source: US20110288052A1, “NOVEL COMPOUNDS, PHARMACEUTICAL COMPOSITIONS CONTAINING SAME, AND METHODS OF USE FOR SAME” (priority 2008, published 2011)
≈ marks a conversion by molar mass, not a printed value. Like-named read-outs stand apart in the source and are kept apart here.

Tests used:
Assay type in all cases: cell-based
HCT116 cells = test: XTT cytotoxicity assay, HCT116 (H); conditions: Homo sapiens, HCT-116
Protocol: XTT Cytotoxicity Assay The XTT assay is a non-radioactive alternative for the [^51Cr] release cytotoxicity assay. XTT is a tetrazolium salt that is reduced to a formazan dye only by metabolically active, viable cells. The reduction of XTT is measured spectrophotometrically as OD490-OD650. To measure the cytotoxicity of specific compounds against cancer cells, 9×10^3 MCF-7 human breast cancer cells (shown in the tables as “(M)”), obtained from the American Type Culture Collection are plated per well in 96 well plates in DMEM medium with 10% fetal bovine serum, insulin, penicillin, and streptomycin. Following overnight culture at 37° C. and 5% CO2, the compounds to be tested, dissolved in DMSO, are added to the wells in 1 μl volume at the following concentrations: 80, 40, 20, 10, 5, 2.5, 1.25, and 0.625 μg/ml in triplicate. Additional concentrations are tested if required. 1 μl of DMSO is added to triplicate wells are the vehicle control. C75 is run at 40, 20, […], and 5 μg/ml in triplicate as positive controls. After 72 hours of incubation, cells are incubated for 4 hours with the XTT reagent as per manufacturer's instructions (Cell Proliferation Kit II (XTT) Roche). Plates are read at OD490 and OD650 on a Molecular Devices SpectraMax Plus Spectrophotometer. Three wells containing the XTT reagent without cells serve as the plate blank. XTT data are reported as OD490-OD650. Averages and standard error of the mean are computed using SOFTmax Pro software (Molecular Dynamics). The IC50 for the compounds is defined as the concentration of drug leading to a 50% reduction in OD490-OD650 compared to controls. The OD490-OD650 are computed by the SOFTmax PRO software (Molecular Devices) for each compound concentration. IC50 is calculated by linear regression, plotting the FAS activity as percent of control versus drug concentrations. Linear regression, best-fit line, r^2, and 95% confidence intervals are determined using Prism Version 3.0 (Graph Pad Software). The test was also run against OVCAR3 cells (“OV”), and HCT116 cells (“H”).

[1] = system: MCF-7 human breast cancer cells (fatty acid oxidation pathway activity); test: Fatty acid oxidation ([14C]palmitate to acid soluble products); conditions: for FAO SC 150: concentration leading to 150% of control acid soluble products, Neg = threshold not reached; for Emax at 0.098 µg/mL: at 0.098 μg/ml; for Emax at 6.25 µg/mL: at 6.25 μg/ml; for Emax at 1.56 µg/mL: at 1.56 μg/ml
Protocol: Measurement of Fatty Acid Oxidation and Determination of SC150 of Compounds This assay measures the degradation of [^14C]palmitate into acid soluble products and is a measure of fatty acid oxidation pathway activity in vitro. It is utilized to measure fatty acid oxidation in vitro. MCF-7 human breast cancer cells cultured as above, are plated at 2.5×10^5 cells per well in 24-well plates. Following overnight incubation, the compounds to be tested, solubilized in DMSO, are added at […], 0.39, 1.56, 6.25, 25, and 100 μg/ml in triplicate, with lower concentrations tested if necessary. DMSO is added to triplicate wells for a vehicle control. C75 is run at 5 and 10 μg/ml in triplicate as positive controls. After 1 hour of incubation, medium is removed 100 uM of [^14C] palmitate in cyclodextran and 200 uM carnitine in serum free medium (250 μl volume) is added to each well. After 30 minutes of additional incubation, the reaction is stopped by addition of 2.6N HClO4. Contents of each well are transferred to 1.5 ml Eppendorf tubes and 4N KOH is added. The tubes are incubated for 30 minutes at 60° C. 1 M NaAcetate and 3N H2SO4 is added to each tube and vortexed. The tubes are centrifuged at 1000 rpm for 5 minutes at RT. 250 μl of the supernatant is transferred to a 2 ml eppendorf tube. To each tube is added: 938 μl of chloroform:methanol (1:1), 468 μl chloroform and 281 μl of deionized water. The tubes are vortexed and centrifuged at 1000 rpm for 5 minutes at RT. 750 μl of the upper phase is transferred into a scintillation vial 5 ml of scintillant is added and vials are counted for 1 minute for ^14C. The Beckman Scintillation counter calculates the average cpm values for triplicates. The SC150 for the compounds is defined as the concentration of drug leading to a 150% increase in production of acid soluble products of [^14C] palmitate as compared to untreated controls. This is determined by plotting the average cpm for each inhibitor concentration tested, performing linear regression and computing the best-fit line, r^2 values, and 95% confidence intervals. The average cpm values are computed by the Beckman scintillation counter (Model LS6500) for each compound concentration. Computation of linear regression, best-fit line, r^2, and 95% confidence intervals are calculated using Prism Version 3.0 (Graph Pad Software). If a compound fails to achieve this 150% threshold it is considered negative. The maximum value achieved is also reported (FAO Max).

[2] = system: Enterococcus faecalis (ATCC # 29212); test: Broth microdilution antimicrobial assay, E. faecalis; conditions: for MIC: Enterococcus faecalis, ATCC29212
Protocol: Antimicrobial Properties A broth microdilution assay is used to assess the antimicrobial activity of the compounds. Compounds are tested at twofold serial dilutions, and the concentration that inhibits visible growth (OD600 at 10% of control) is defined as the MIC. Microorganisms tested include Staphylococcus aureus (ATCC # 29213), Enterococcus faecalis (ATCC # 29212), Pseudomonas aerpginosa (ATCC # 27853), and Escherichia coli (ATCC # 25922). The assay is performed in two growth media, Mueller Hinton Broth and Trypticase Soy Broth.
A blood (Tsoy/5% sheep blood) agar plate is inoculated from frozen stocks maintained in T soy broth containing 10% glycerol and incubated overnight at 37° C. Colonies are suspended in sterile broth so that the turbidity matches the turbidity of a 0.5 McFarland standard. The inoculum is diluted 1:10 in sterile broth (Mueller Hinton or Trypticase soy) and 195 μl is dispensed per well of a 96-well plate. The compounds to be tested, dissolved in DMSO, are added to the wells in 5 μl volume at the following concentrations: 25, 12.5, 6.25, 3.125, 1.56 and 0.78 μg/ml in duplicate. Additional concentrations are tested if required. 5 μl of DMSO added to duplicate wells are the vehicle control. Serial dilutions of positive control compounds, vancomycin (E. faecalis and S. aureus) and tobramycin (E. coli and P. aerpginosa), are included in each run.
After 24 hours of incubation at 37° C., plates are read at OD600 on a Molecular Devices SpectraMax Plus Spectrophotometer. Average OD600 values are computed using SOFTmax Pro Software (Molecular Devices) and MIC values are determined by linear regression analysis using Prism version 3.02 (Graph Pad Software, San Diego). The MIC is defined as the concentration of compound required to produce an OD600 reading equivalent to 10% of the vehicle control reading.

[3] = Homo sapiens, MCF7, read-out: FAO Max

Row | SMILES | IC50 (HCT116 cells) [µg/mL] | FAO SC 150 [1] | EF/MH (MIC) ([2]; Mueller Hinton Broth) | EF/Tsoy (MIC) ([2]; Trypticase Soy Broth) | Emax at 1.56 µg/mL [1, 3] [%] | further results
1 | CCCCCCCCC1(C)SC(=O)C=C1OCC(=O)Nc1ccc(-c2cccs2)cc1 (stereo not shown) | > 80 | 61.9 µg/mL | Neg | Neg |  | Emax at 100 µg/mL ([1]; Homo sapiens, MCF7, at 100 μg/ml, read-out: FAO Max): 168%
2 | CCCCCCCCC1(C)SC(=O)C=C1OCC(=O)Nc1ccc2c(c1)OCO2 (stereo not shown) | 14.8 (≈ 35.3 µM) | Neg | Neg | Neg |  | Emax at 0.098 µg/mL [1, 3]: 45%
3 | CCCCCCCCC1(C)SC(=O)C=C1OCC(=O)Nc1ccc(OC(F)(F)F)cc1 (stereo not shown) | 3.5 (≈ 7.62 µM) |  | Neg | Neg |  | 
4 | CCCCCCCCC1(C)OC(=O)C=C1OCC(=O)Nc1ccc(Cl)cc1 (stereo not shown) | 4.8 (≈ 12.2 µM) | Neg |  | Neg |  | Emax at 0.39 µg/mL ([1]; Homo sapiens, MCF7, at 0.39 μg/ml, read-out: FAO Max): 95%; MIC ([2]; Mueller Hinton Broth, read-out: EF/MH (MIC)): 70 µg/mL (≈ 178 µM)
5 | CCCCCCCCC1(C)SC(=O)C=C1OCC(=O)Nc1ccc(C(F)(F)F)cc1 (stereo not shown) | 4.8 (≈ 10.8 µM) | Neg | Neg | Neg |  | Emax at 6.25 µg/mL [1, 3]: 130%
6 | CCCCCCCCC1(C)SC(=O)C=C1OCC(=O)Nc1ccccc1SC (stereo not shown) | 31.4 (≈ 74.5 µM) | Neg |  |  |  | Emax at 6.25 µg/mL [1, 3]: 114%
7 | CCCCCCCCC1(C)SC(=O)C=C1OCC(=O)Nc1cccc(OC(F)(F)F)c1 (stereo not shown) | 8 (≈ 17.4 µM) | Neg |  |  | 122 | 
8 | CCCCCCCCC1(C)SC(=O)C=C1OCC(=O)Nc1ccccc1 (stereo not shown) | 7.1 (≈ 18.9 µM) | Neg | Neg | Neg |  | Emax at 0.098 µg/mL [1, 3]: 122%
9 | CCCCCCCCOc1ccc(NC(=O)COC2=CC(=O)SC2(C)CCCCCCCC)cc1 (stereo not shown) | > 80 | Neg | Neg | Neg |  | Emax at 0.098 µg/mL [1, 3]: 97%
10 | CCCCCCCC[C@]1(C)SC(=O)C=C1OCC(=O)Nc1ccccc1OC(F)(F)F | 78.8 (≈ 171 µM) | Neg |  |  |  | Emax at 25 µg/mL ([1]; Homo sapiens, MCF7, at 25 μg/ml, read-out: FAO Max): 116%
11 | CCCCCCCCC1(C)SC(=O)C=C1OCC(=O)Nc1ccc(Oc2ccc(Cl)cc2)cc1 (stereo not shown) | 6.3 (≈ 12.5 µM) | Neg | Neg | Neg |  | Emax at 6.25 µg/mL [1, 3]: 109%
12 | CCCCCCCCC1(C)SC(=O)C=C1OCC(=O)Nc1ccc(Cl)cc1 (stereo not shown) | 5.9 ± 2.7 (≈ 14.4 µM) | Neg | Neg |  | 106 | MIC ([2]; Trypticase Soy Broth, read-out: EF/Tsoy (MIC)): 44 µg/mL (≈ 107 µM)
13 | CCCCCCCCC1(C)SC(=O)C=C1OCC(=O)Nc1ccc(Cl)cc1C(F)(F)F (stereo not shown) | 14 (≈ 29.3 µM) | 1.9 µg/mL | Neg | Neg | 141 | 
14 | CCCCCCCCC1(C)SC(=O)C=C1OCC(=O)Nc1cccc(C(F)(F)F)c1 (stereo not shown) | 7.6 (≈ 17.1 µM) | Neg |  |  |  | Emax at 0.395 µg/mL ([1]; Homo sapiens, MCF7, at 0.395 μg/ml, read-out: FAO Max): 75%
15 | CCCCCCCC[C@]1(C)SC(=O)C=C1OCC(=O)Nc1ccccc1C(F)(F)F | 15.6 (≈ 35.2 µM) | Neg |  |  | 105 | 
16 | CCCCCCCCC1(C)SC(=O)C=C1OCC(=O)Nc1ccc(Cl)cc1Cl (stereo not shown) | 13.1 (≈ 29.5 µM) | Neg |  |  | 141 | 
17 | CCCCCCCCC1(C)SC(=O)C=C1OCC(=O)Nc1ccccc1N1CCCCC1 (stereo not shown) | 13.1 (≈ 28.6 µM) | Neg | Neg | Neg | 119 | 
18 | CCCCCCCCC1(C)SC(=O)C=C1OCC(=O)Nc1ccc(SC)cc1 (stereo not shown) | 11.5 (≈ 27.3 µM) | Neg |  |  |  | Emax at 6.25 µg/mL [1, 3]: 100%
19 | CCCCCCCCC1(C)SC(=O)C=C1OCC(=O)Nc1ccc(OC)cc1 (stereo not shown) | 15.6 (≈ 38.5 µM) | Neg | Neg | Neg |  | Emax at 0.098 µg/mL [1, 3]: 90%
